Measured values as given in US9249466B2, “Methods and compositions for treating cancer” (Agency for Science, Technology and Research, priority 2010, dated 2016).
Entries after “also recorded” stand apart in the source; their conditions may differ.

Tests used:
HEK-PDK1 cells = assay: Tumor sphere formation in HEK-PDK1 cells; format: cell-based, human; conditions: 5 nM BI2536 for 7 days
DLD1 and SW480 cells [1] = assay: Monolayer dense foci / colony formation of DLD1 and SW480 cells; format: cell-based, human; conditions: monolayer colony formation, 12 days
Method: For DLD1 and HCT116 inducible cells foci formation assay, 1×10^4 cells were seeded on 6-well plate with or without treatment with Dox or rapamcycin. […]

HEK-TERV cells = assay: Apoptotic assay in HEK-TERV cells; format: cell-based, human; conditions: 10 nM for 24 h; PDK1-transformed vs control or PI3K (E545)-transformed cells
SW480 and DLD1 cells = assay: Apoptotic assay in SW480 and DLD1 cells; format: cell-based, human; conditions: BI2536 10 nM plus BEZ 235 100 nM, 48 hr
DLD1 and SW480 cells [2] = assay: Cell viability of DLD1 and SW480 cells under drug combinations; format: cell-based, human; conditions: SW480 and DLD1 cells, BI 2536 10 nM plus BEZ 235 10 nM
Method: (§1) Cell viability was measured using CellTiter-Glo™ Luminescent Cell Viability Assay (Promega).
(§2) In brief, 1000 cells were seeded in 96-well plate and the cell number was measured following manufacturer's instruction. To detect the senescence in DLD1-tet on cells, cells were treated with Dox for 48 hr and SA-β-Gal staining was performed according to the protocol of Senescence Detection kit (BioVision). Cell cycle analysis was done by DNA content quantification.

IgE-like antibodies = conditions: in vivo; cited from earlier work
HCT116 and DKO cells = assay: Rapamycin-induced growth inhibition in HCT116 and DKO cells; format: cell-based, human; conditions: DKO cells compared to parental HCT116 cells
Method: as §1, §2

adjuvant arthritis = conditions: model for rheumatoid arthritis; cited from earlier work
[3] = animal models; cited from earlier work
DLD1-PPP2R2B cells [4] = assay: Cell cycle analysis by flow cytometry in DLD1-PPP2R2B cells; format: cell-based, human; conditions: rapamycin added to Dox-induced PPP2R2B expression, 48 h
Method: as §2
The cells were fixed with 70% ethanol and stained with propidium iodide (50 μg/ml) staining. The stained cells were analyzed by FACScalibur (BD Bioscience) and quantified by using CellQuest software (BD bioscience).

cytochrome P-450 3A = conditions: cited from earlier work
p-AKT (S473) = assay: Immunoblot analysis of AKT S473 phosphorylation; format: cell-based, human
DLD1-PPP2R2B cells [5] = assay: Dense foci / colony formation assay in DLD1-PPP2R2B cells; format: cell-based, human; conditions: 10 nM rapamycin, PPP2R2B re-expressed by Dox vs no Dox, 14 days
Method: For DLD1 and HCT116 inducible cells foci formation assay, 1×10^4 cells were seeded on 6-well plate with or without treatment with Dox or rapamcycin. Cells were grown for 2 weeks and the surviving colonies were stained with gentian violet after methanol fixation, and visible colonies (>50 cells) were counted.

[6] = system: p70S6K and S6 phosphorylation; assay: Immunoblot analysis of p70S6K and S6 phosphorylation; format: cell-based, human; conditions: DLD1 vector control and PPP2R2B expressing cells, 10 nM rapamycin
[7] = bile of treated rats; cited from earlier work
neurodegeneration = conditions: fly model of HD; cited from earlier work
[8] = system: experimental allergic encephalomyelitis; conditions: model for multiple sclerosis; cited from earlier work
Candida albicans = conditions: in vitro and in vivo; cited from earlier work
[9] = system: huntingtin accumulation and cell death; conditions: cell models of HD; cited from earlier work
DLD1-PPP2R2B cells [10] = assay: Cell viability assay in DLD1-PPP2R2B cells; format: cell-based, human; conditions: 10 nM rapamycin, PPP2R2B re-expressed by Dox vs no Dox, 5 days
Method: as §1, §2

CRC cell lines = assay: Cell viability (CellTiter-Glo): rapamycin-induced growth inhibition in CRC cell lines; format: cell-based; conditions: Homo sapiens, 120 h; 10 nM rapamycin, 5 days treatment, all examined CRC cell lines; read-out: rapamycin-induced growth inhibition compared to untreated cells
Method: as §1, §2

[11] = system: PPP2R2B-expressing cancer cell lines; assay: Rapamycin-induced growth inhibition in PPP2R2B-expressing cancer cell lines; format: cell-based, human; conditions: 10 nM rapamycin, 5 days; compared to CRC cell lines
Method: as §1, §2

p-Myc(T58/S62) = assay: Immunoblot analysis of Myc phosphorylation; format: cell-based, human
DLD1-PPP2R2B cells [12] = assay: Xenograft tumor growth of DLD1-PPP2R2B cells in nude mice; format: in vivo, BALB/c nude mice
Method: The female athymice BALB/c nude mice (5-8 week-old) were housed in the Biological Resource Centre. Mice were implanted subcutaneously in both sides of flank with 3×10^6 DLD1-PPP2R2B or control DLD1 cells, respectively.
When tumors reached ˜70 mm^3, the mice were divided two groups (6 mice per group) and the Doxycyclin was administrated by oral gavages at 100 mg/kg daily. Tumor progress was monitored with whole body weight and tumor size for every other day. For combination treatment with rapamycin and doxycycline, the same dose of doxycyclin was given at every other day and rapamycin was administered by intraperitoneal injection at 4 mg/kg at Day 3, 5, 7 and 11.
Tumor diameters were measured every 3-4 days with caliper and tumor volumes were calculated from 7-9 mice per data time point. All animal work was performed in accordance with animal experiments guidelines of Singapore.

[13] = DLD1 cells serum starved 48 h, then 10 nM rapamycin

CC[C@@H]1C(=O)N(C)c2cnc(Nc3ccc(C(=O)NC4CCN(C)CC4)cc3OC)nc2N1C1CCCC1 [BI2536]
tumor sphere formation (HEK-PDK1 cells): blocks the tumor sphere formation; also recorded: abolished the PDK1-driven tumorspheres formation
long term colony formation in combination with BEZ235 (DLD1 and SW480 cells [1]): strong synergistic
apoptosis (HEK-TERV cells): selectively induced apoptosis in PDK1-transformed cells
apoptosis in combination with BEZ235 (SW480 and DLD1 cells): strong synergistic
growth inhibition in combination with BEZ235 (DLD1 and SW480 cells [2]): strong synergistic growth inhibition

CO[C@H]1C[C@@H]2CC[C@@H](C)[C@@](O)(O2)C(=O)C(=O)N2CCCC[C@H]2C(=O)O[C@H]([C@H](C)C[C@@H]2CC[C@@H](O)[C@H](OC)C2)CC(=O)[C@H](C)/C=C(\C)[C@@H](O)[C@@H](OC)C(=O)[C@H](C)C[C@H](C)/C=C/C=C/C=C/1C [rapamycin, (3S,6R,7E,9R,10R,12R,14S,15E,17E,19E,21S,23S,26R,27R,34aS)-9,10,12,13,14,21,22,23,24,25,26,27,32,33,34,34a-hexadecahydro-9,27-dihydroxy-3-[(1R)-2-[(1S,3R,4R)-4-hydroxy-3-methoxycyclohexyl]-1-methylethyl]-10,21-dimethoxy-6,8,12,14,20,26-hexamethyl-23,27-epoxy-3H-pyrido[2,1-c][1,4]-oxaazacyclohentriacontine-1,5,11,28,29(4H,6H,31H)-pentone]
formation of IgE-like antibodies (IgE-like antibodies): effectively inhibited
sensitivity to rapamycin treatment (HCT116 and DKO cells): more sensitive
efficacy (adjuvant arthritis): effective
nephrotoxicity [3]: no nephrotoxicity has been detected
cell cycle G2 arrest (DLD1-PPP2R2B cells [4]): markedly augmented
number of metabolites formed (cytochrome P-450 3A): at least six metabolites
AKT S473 phosphorylation (p-AKT (S473); CRC cells (DLD1), 10 nM rapamycin): induction of AKT S473 phosphorylation
rapamycin-induced AKT S473 phosphorylation under serum starvation (p-AKT (S473); [13]): abolished
AKT S473 phosphorylation (p-AKT (S473); HCT116 and DKO cells, 10 nM rapamycin): similarly induced
AKT S473 phosphorylation (p-AKT (S473); PPP2R2B-expressing cancer cell lines): consistent induction of AKT S473 phosphorylation
rapamycin-induced growth inhibition (colony formation assay) (DLD1-PPP2R2B cells [5]): much more effective
p70S6K and S6 phosphorylation [6]: effectively abolished
number of hydroxylated and demethylated metabolites detected [7]: > 16
neurodegeneration (neurodegeneration): protects against neurodegeneration
efficacy [8]: effective
antifungal activity (Candida albicans): antifungal activity
huntingtin accumulation and cell death [9]: attenuates huntingtin accumulation and cell death
rapamycin-induced growth inhibition (cell viability assay) (DLD1-PPP2R2B cells [10]): much more effective
inhibition at 0.01 µM (CRC cell lines): < 10%
sensitivity to rapamycin [11]: much more sensitive
Myc phosphorylation (p-Myc(T58/S62); DKO (DNMTs-deficient HCT116) cells, 10 nM rapamycin): did not respond to rapamycin
rapamycin-induced Myc phosphorylation under serum starvation (p-Myc(T58/S62); [13]): no significant effect
Myc phosphorylation and protein accumulation (p-Myc(T58/S62); DLD1 cells, 10 nM rapamycin, 48 hr): strong induction of Myc phosphorylation and protein accumulation; also recorded: induces Myc phosphorylation
time at which the Myc response occurred (p-Myc(T58/S62); DLD1 cells, 10 nM rapamycin, time course): 4 h
Myc phosphorylation (p-Myc(T58/S62); HCT116 cells, 10 nM rapamycin): strongly induced
Myc phosphorylation (p-Myc(T58/S62); PPP2R2B-expressing cancer cell lines (HepG2, HepB3, 786-O, Caki2, OVCAR3, OVCAR5, SK-OV-3, U2OS)): none of these PPP2R2B-expressing cancer cell lines showed an induction of Myc phosphorylation
Myc phosphorylation (p-Myc(T58/S62); all examined CRC cell lines, rapamycin 48 hr): marked induction of Myc phosphorylation
xenograft tumor growth, single treatment (DLD1-PPP2R2B cells [12]; rapamycin 4 mg/kg i.p. or Dox 100 mg/kg oral alone, every other day): moderately attenuated
xenograft tumor growth, combination of rapamycin and Dox (DLD1-PPP2R2B cells [12]; rapamycin 4 mg/kg plus Dox 100 mg/kg (PPP2R2B re-expression)): strong tumor growth inhibition
